Results published in ChEMBL document CHEMBL1201862, “PubChem BioAssay data set” (2004).
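48-hour exposure; five concentrations; linearly interpolated endpoints. GI50 is the concentration that inhibits growth by half.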 Activity calls are given as the source filed them. Rule as the data show it: active = GI50 up to about 1.1 µM and inactive = higher.

Columns and labels:
Test in all cases: NCI-60 cell line screen, 48 h
HL-60 = test system: HL-60
RPMI-8226 = test system: RPMI-8226
LOX IMVI = test system: LOX IMVI
UACC-62 = test system: UACC-62
SF-295 = test system: SF-295
COLO 205 = test system: COLO 205
U-251 = test system: U-251
IGROV-1 = test system: IGROV-1
SR = test system: SR
SNB-19 = test system: SNB-19
ACHN = test system: ACHN
SN12C = test system: SN12C
SW-620 = test system: SW-620
A498 = test system: A498
NCI-H522 = test system: NCI-H522
SK-OV-3 = test system: SK-OV-3
MCF7 = test system: MCF7
MDA-MB-231 = test system: MDA-MB-231
PC-3 = test system: PC-3
MDA-N = test system: MDA-N

| SMILES | GI50 (HL-60) | GI50 (RPMI-8226) | GI50 (LOX IMVI) | GI50 (UACC-62) | GI50 (SF-295) | GI50 (COLO 205) | GI50 (U-251) | GI50 (IGROV-1) | GI50 (SR) | GI50 (SNB-19) | GI50 (ACHN) | GI50 (SN12C) | GI50 (SW-620) | GI50 (A498) | GI50 (NCI-H522) | GI50 (SK-OV-3) | GI50 (MCF7) | GI50 (MDA-MB-231) | GI50 (PC-3) | GI50 (MDA-N) |
| --- | --- | --- | --- | --- | --- | --- | --- | --- | --- | --- | --- | --- | --- | --- | --- | --- | --- | --- | --- | --- |
| Nc1nc(-c2ccccc2)cc(-c2ccccc2O)n1 | 16.5 µM (inactive) | 22.6 µM (inactive) | 31.8 µM (inactive) | 59.2 µM (inactive) | 71.6 µM (inactive) | 43.3 µM (inactive) | 45.2 µM (inactive) | 49.4 µM (inactive) | 30.3 µM (inactive) | 68.9 µM (inactive) | 27.2 µM (inactive) | 37.8 µM (inactive) | 41.1 µM (inactive) | 40.7 µM (inactive) | 22.9 µM (inactive) | 85.9 µM (inactive) |  |  |  |  |
| NC(=O)N/N=C/c1ccccc1O | 53.1 µM (inactive) | > 100 µM (inactive) | > 100 µM (inactive) | > 100 µM (inactive) | > 100 µM (inactive) | > 100 µM (inactive) | > 100 µM (inactive) | > 100 µM (inactive) | > 100 µM (inactive) | > 100 µM (inactive) | > 100 µM (inactive) |  | > 100 µM (inactive) | > 100 µM (inactive) |  | > 100 µM (inactive) | > 100 µM (inactive) | > 100 µM (inactive) | > 100 µM (inactive) |  |
| Cc1cccc(C)c1NC(=O)C1C(=O)N(c2c(C)cccc2C)C(=O)/C1=N\N (stereo unspecified) | 1.68 µM (inactive) | > 100 µM (inactive) | > 100 µM (inactive) | > 100 µM (inactive) | > 100 µM (inactive) | > 100 µM (inactive) | > 100 µM (inactive) | > 100 µM (inactive) | > 100 µM (inactive) | > 100 µM (inactive) | > 100 µM (inactive) | > 100 µM (inactive) | > 100 µM (inactive) | > 100 µM (inactive) | > 100 µM (inactive) | > 100 µM (inactive) |  |  |  |  |
| CC1(C)CC2C(=O)c3ccccc3NC2c2ccccc21 (stereo unspecified) | 2.11 µM (inactive) | 2.54 µM (inactive) | 4.76 µM (inactive) | 3.9 µM (inactive) | 1.84 µM (inactive) | 3.44 µM (inactive) | 5.47 µM (inactive) | 7.13 µM (inactive) |  | 5.79 µM (inactive) | 14.4 µM (inactive) | 5.79 µM (inactive) | 3.9 µM (inactive) | 6.21 µM (inactive) | 1.53 µM (inactive) |  | 4.33 µM (inactive) |  | 3.6 µM (inactive) | 0.32 µM (active) |
| CC1=CC2CC(C)=C(CC[C@]3(C)CC[C@H]([C@@H](C)C(=O)O)OO3)C(C)(C)C2CC1 (stereo partly specified) | 0.0863 µM (active) | 0.304 µM (active) | 0.0792 µM (active) | 1.49 µM (inactive) | 1.36 µM (inactive) | 0.403 µM (active) | 0.356 µM (active) | 0.212 µM (active) | 0.195 µM (active) | 1.67 µM (inactive) | 1.3 µM (inactive) | 0.391 µM (active) | 0.177 µM (active) | 1.75 µM (inactive) | 0.171 µM (active) | 2.2 µM (inactive) |  |  |  |  |
| Cc1n[n+]([O-])c(C)cc1[N+](=O)[O-] |  | 0.552 µM (active) | 20.9 µM (inactive) | 17.7 µM (inactive) |  | 13.5 µM (inactive) | 22.4 µM (inactive) | 21.8 µM (inactive) |  | 39.4 µM (inactive) | 16.6 µM (inactive) | 14.9 µM (inactive) | 15 µM (inactive) | 18.1 µM (inactive) | 12.3 µM (inactive) | 93.8 µM (inactive) | 17.3 µM (inactive) | 18.2 µM (inactive) | 23.8 µM (inactive) |  |
| COc1cc2c(cc1OCCCCN1CCN(CCCCOc3cc4c(cc3OC)C(=O)N3CCC[C@H]3C=N4)CC1)N=C[C@@H]1CCCN1C2=O | < 0.01 µM (active) | < 0.0125 µM (active) |  | < 0.0105 µM (active) | < 0.0352 µM (active) | 0.0158 µM (active) | 0.0167 µM (active) | 0.146 µM (active) | 1 µM (active) |  | 0.0448 µM (active) | < 0.01 µM (active) | < 0.0119 µM (active) | 0.0543 µM (active) | < 0.01 µM (active) | 4.45 µM (inactive) | < 0.0318 µM (active) | 0.0378 µM (active) | 0.0873 µM (active) |  |
| O=Nc1c(-c2cccc([N+](=O)[O-])c2)nc2cnccn12 | 34.2 µM (inactive) |  | 15.2 µM (inactive) | 18.5 µM (inactive) | 43.4 µM (inactive) | 20 µM (inactive) | 20.4 µM (inactive) | 17.4 µM (inactive) | 2.2 µM (inactive) | > 100 µM (inactive) | 3.63 µM (inactive) | 24.4 µM (inactive) | 10.1 µM (inactive) |  | 14.6 µM (inactive) | 68.7 µM (inactive) | 36 µM (inactive) | 13.8 µM (inactive) | 24.9 µM (inactive) |  |
| C/C(=C\COP(=O)(O)OP(=O)(O)O)CC/C=C(\C)CNc1c(F)c(F)c(F)c(F)c1F | > 100 µM (inactive) |  | > 100 µM (inactive) | > 51.9 µM (inactive) | > 52.8 µM (inactive) | > 100 µM (inactive) | > 100 µM (inactive) | > 86.3 µM (inactive) | 0.0695 µM (active) | > 100 µM (inactive) | > 100 µM (inactive) | > 56.1 µM (inactive) | > 84.7 µM (inactive) |  | > 100 µM (inactive) | > 100 µM (inactive) | > 100 µM (inactive) | 5.43 µM (inactive) | 67.3 µM (inactive) |  |
| O=C(NCc1ccccc1)c1cnc(Cl)cn1 | > 100 µM (inactive) | 44.2 µM (inactive) | 28.8 µM (inactive) | > 100 µM (inactive) | > 100 µM (inactive) | > 100 µM (inactive) | 48.2 µM (inactive) | 42.8 µM (inactive) | 20.7 µM (inactive) | 63.8 µM (inactive) | 20.1 µM (inactive) | > 100 µM (inactive) | > 100 µM (inactive) | > 100 µM (inactive) | 2.12 µM (inactive) | > 100 µM (inactive) | > 100 µM (inactive) | 85.5 µM (inactive) |  |  |
| COc1ccccc1NC(=O)CC(=O)N1N=C(c2ccccc2)C(/N=N/c2ccc(Cl)cc2)C1=O (stereo unspecified) | 52 µM (inactive) | > 100 µM (inactive) | 22.9 µM (inactive) | 25.7 µM (inactive) | 30.5 µM (inactive) | 71.4 µM (inactive) | 30.9 µM (inactive) | 29.9 µM (inactive) | 55.1 µM (inactive) | 36 µM (inactive) | 19.2 µM (inactive) | 68.1 µM (inactive) | 45.6 µM (inactive) | 15.2 µM (inactive) | 32.1 µM (inactive) | 21.9 µM (inactive) |  |  |  |  |
| Cc1ccc(SCC(OCn2cnc3c(N)ncnc32)[C@H](C)F)cc1 (stereo partly specified) | > 100 µM (inactive) | > 100 µM (inactive) | > 100 µM (inactive) | > 100 µM (inactive) | > 100 µM (inactive) | > 100 µM (inactive) | > 100 µM (inactive) | > 100 µM (inactive) | > 100 µM (inactive) | > 100 µM (inactive) | > 100 µM (inactive) | > 100 µM (inactive) | > 100 µM (inactive) |  | > 100 µM (inactive) | > 100 µM (inactive) | > 100 µM (inactive) | > 100 µM (inactive) | > 100 µM (inactive) |  |
| COc1cccc2nc3c(C(=O)NCCN(C)C)cccc3nc12 | 4.51 µM (inactive) | 6.49 µM (inactive) | 4.2 µM (inactive) | 12.6 µM (inactive) | 10.1 µM (inactive) | 5.2 µM (inactive) | 12.6 µM (inactive) | 16.1 µM (inactive) | 3.38 µM (inactive) | 17.4 µM (inactive) | 4.3 µM (inactive) | 9.2 µM (inactive) | 5.42 µM (inactive) | 9.27 µM (inactive) | 11.9 µM (inactive) | 25.1 µM (inactive) |  |  |  |  |
| O=C1CC(NCc2ccccc2)c2c(Cl)sc(Cl)c21 (stereo unspecified) | 17.2 µM (inactive) | 2.26 µM (inactive) | 5.05 µM (inactive) | 5.01 µM (inactive) | 38.7 µM (inactive) | 21.6 µM (inactive) | 18.3 µM (inactive) | 26.1 µM (inactive) | 3.2 µM (inactive) | 33.7 µM (inactive) | 22.3 µM (inactive) | 26 µM (inactive) | 17.7 µM (inactive) | > 60.3 µM (inactive) | 6.05 µM (inactive) | > 74 µM (inactive) | 14 µM (inactive) | 27.1 µM (inactive) | 17.3 µM (inactive) |  |
| [N-]=[N+]=C1C(=O)C2CC3CC1CC2C3 (stereo unspecified) | > 100 µM (inactive) | > 100 µM (inactive) | > 100 µM (inactive) | > 100 µM (inactive) | > 100 µM (inactive) | > 100 µM (inactive) | > 100 µM (inactive) | > 100 µM (inactive) | > 100 µM (inactive) | > 100 µM (inactive) | > 100 µM (inactive) | > 100 µM (inactive) | 81.1 µM (inactive) | > 100 µM (inactive) | > 100 µM (inactive) | > 100 µM (inactive) |  |  |  |  |
| CC[C@@]1(O)C(=O)OCc2c1cc1n(c2=O)Cc2cc3cc(O)ccc3nc2-1 [HYDROXYCAMPTOTHECIN] | 0.0161 µM (active) |  | 0.0337 µM (active) | < 0.0075 µM (active) |  | 0.125 µM (active) | < 0.0075 µM (active) | 0.476 µM (active) | 0.01 µM (active) |  | < 0.0116 µM (active) | 0.0128 µM (active) |  |  | 0.0105 µM (active) | 0.0227 µM (active) | < 0.0075 µM (active) | 0.867 µM (active) | 0.084 µM (active) |  |
